Data as given in patent US8952024B2, “Herbicidal pyrimidone derivatives” (E I du Pont de Nemours and Company, priority 2009, dated 2015).

How the values were obtained:
Assay in all cases: Test B pre-/postemergence plant response
Assay type in all cases: in vivo
[1] = tested on: bermudagrass (Cynodon dactylon); details: for Plant response rating, Bermudagrass: Postemergence; for Bermudagrass plant response rating (0 to 100 scale): 62 g ai/ha, postemergence, 0 is no effect, 100 is complete control, 13 to 15 days
Summary of the method: (§1)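 Steps: sow seed in loam–sand soil and spray preemergence, or grow plants in peat-based medium to 1–4 leaves (2–18 cm) and spray postemergence; formulation is non-phytotoxic solvent plus surfactant; hold in greenhouse 13–15 days; score visually vs controls, 0 = no effect, 100 = complete control.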

kochia (Kochia scoparia) = details: for Plant response rating, Kochia: Postemergence; for Kochia plant response rating (0 to 100 scale): 62 g ai/ha, postemergence, 0 is no effect, 100 is complete control, 13 to 15 days
Summary of the method: as §1

[2] = tested on: blackgrass (Alopecurus myosuroides); details: for Plant response rating, Blackgrass: Postemergence; for Blackgrass plant response rating (0 to 100 scale): 62 g ai/ha, postemergence, 0 is no effect, 100 is complete control, 13 to 15 days
Summary of the method: as §1

[3] = tested on: goosegrass (Eleusine indica); details: for Plant response rating, Goosegrass: Postemergence; for Goosegrass plant response rating (0 to 100 scale): 62 g ai/ha, postemergence, 0 is no effect, 100 is complete control, 13 to 15 days
Summary of the method: as §1

[4] = tested on: ragweed (common ragweed, Ambrosia elatior); details: for Plant response rating, Ragweed: Postemergence; for Ragweed plant response rating (0 to 100 scale): 62 g ai/ha, postemergence, 0 is no effect, 100 is complete control, 13 to 15 days
Summary of the method: as §1

[5] = tested on: lambsquarters (Chenopodium album); details: for Plant response rating, Lambsquarters: Postemergence; for Lambsquarters plant response rating (0 to 100 scale): 62 g ai/ha, postemergence, 0 is no effect, 100 is complete control, 13 to 15 days
Summary of the method: as §1

[6] = tested on: downy bromegrass (Bromus tectorum); details: for Plant response rating, Bromegrass, Downy: Postemergence; for Bromegrass, Downy plant response rating (0 to 100 scale): 62 g ai/ha, postemergence, 0 is no effect, 100 is complete control, 13 to 15 days
Summary of the method: as §1

[7] = tested on: giant foxtail (Setaria faberii); details: for Plant response rating, Foxtail, Giant: Postemergence; for Foxtail, Giant plant response rating (0 to 100 scale): 62 g ai/ha, postemergence, 0 is no effect, 100 is complete control, 13 to 15 days
Summary of the method: as §1

[8] = tested on: velvetleaf (Abutilon theophrasti); details: for Plant response rating, Velvetleaf: Postemergence; for Velvetleaf plant response rating (0 to 100 scale): 62 g ai/ha, postemergence, 0 is no effect, 100 is complete control, 13 to 15 days
Summary of the method: as §1

corn (Zea mays) = details: for Plant response rating, Corn: Postemergence; for Corn plant response rating (0 to 100 scale): 62 g ai/ha, postemergence, 0 is no effect, 100 is complete control, 13 to 15 days
Summary of the method: as §1

[9] = tested on: green foxtail (Setaria viridis); details: for Plant response rating, Foxtail, Green: Postemergence; for Foxtail, Green plant response rating (0 to 100 scale): 62 g ai/ha, postemergence, 0 is no effect, 100 is complete control, 13 to 15 days
Summary of the method: as §1

[10] = tested on: woolly cupgrass (Eriochloa villosa); details: for Plant response rating, Cupgrass, Woolly: Postemergence; for Cupgrass, Woolly plant response rating (0 to 100 scale): 62 g ai/ha, postemergence, 0 is no effect, 100 is complete control, 13 to 15 days
Summary of the method: as §1

[11] = tested on: johnsongrass (Sorghum halepense); details: for Plant response rating, Johnsongrass: Postemergence; for Johnsongrass plant response rating (0 to 100 scale): 62 g ai/ha, postemergence, 0 is no effect, 100 is complete control, 13 to 15 days
Summary of the method: as §1

[12] = tested on: large crabgrass (Digitaria sanguinalis); details: for Plant response rating, Crabgrass, Large: Postemergence; for Crabgrass, Large plant response rating (0 to 100 scale): 62 g ai/ha, postemergence, 0 is no effect, 100 is complete control, 13 to 15 days
Summary of the method: as §1

[13] = tested on: Surinam grass (Brachiaria decumbens); details: for Plant response rating, Surinam Grass: Postemergence; for Surinam Grass plant response rating (0 to 100 scale): 62 g ai/ha, postemergence, 0 is no effect, 100 is complete control, 13 to 15 days
Summary of the method: as §1

[14] = tested on: yellow nutsedge (Cyperus esculentus); details: for Plant response rating, Nutsedge, Yellow: Postemergence; for Nutsedge, Yellow plant response rating (0 to 100 scale): 62 g ai/ha, postemergence, 0 is no effect, 100 is complete control, 13 to 15 days
Summary of the method: as §1

[15] = tested on: Italian ryegrass (Lolium multiflorum); details: for Plant response rating, Ryegrass, Italian: Postemergence; for Ryegrass, Italian plant response rating (0 to 100 scale): 62 g ai/ha, postemergence, 0 is no effect, 100 is complete control, 13 to 15 days
Summary of the method: as §1

[16] = 31 g ai/ha, 0 to 100 scale (0 no effect, 100 complete control)
[17] = 125 g ai/ha, scale 0 to 100 (0 no effect, 100 complete control)
[18] = 250 g ai/ha, scale 0 to 100 (0 no effect, 100 complete control)

CCn1c(-c2cc(F)cc(F)c2)ncc(C(=O)C2=C(O)CCCC2=O)c1=O [Compound 122]
Plant response rating, Bermudagrass ([1]; 16 g ai/ha, 0 to 100 scale): 65 | Bermudagrass plant response rating (0 to 100 scale) [1]: 80 | Plant response rating, Bermudagrass [1, 16]: 75 | Plant response rating, Bermudagrass [1, 17]: 85 | Plant response rating, Kochia (kochia (Kochia scoparia); 16 g ai/ha, 0 to 100 scale): 0 | Kochia plant response rating (0 to 100 scale) (kochia (Kochia scoparia)): 0 | Plant response rating, Kochia (kochia (Kochia scoparia); [16]): 0 | Plant response rating, Kochia (kochia (Kochia scoparia); [17]): 45 | Plant response rating, Blackgrass ([2]; 16 g ai/ha, 0 to 100 scale): 0 | Blackgrass plant response rating (0 to 100 scale) [2]: 5 | Plant response rating, Blackgrass [2, 16]: 5 | Plant response rating, Blackgrass [2, 17]: 15 | Plant response rating, Goosegrass ([3]; 16 g ai/ha, 0 to 100 scale): 10 | Goosegrass plant response rating (0 to 100 scale) [3]: 65 | Plant response rating, Goosegrass [3, 16]: 40 | Plant response rating, Goosegrass [3, 17]: 70 | Plant response rating, Ragweed ([4]; 16 g ai/ha, 0 to 100 scale): 55 | Ragweed plant response rating (0 to 100 scale) [4]: 60 | Plant response rating, Ragweed [4, 16]: 60 | Plant response rating, Ragweed [4, 17]: 75 | Plant response rating, Lambsquarters ([5]; 16 g ai/ha, 0 to 100 scale): 55 | Lambsquarters plant response rating (0 to 100 scale) [5]: 65 | Plant response rating, Lambsquarters [5, 16]: 60 | Plant response rating, Lambsquarters [5, 17]: 90 | Plant response rating, Bromegrass, Downy ([6]; 16 g ai/ha, 0 to 100 scale): 5 | Bromegrass, Downy plant response rating (0 to 100 scale) [6]: 5 | Plant response rating, Bromegrass, Downy [6, 16]: 5 | Plant response rating, Bromegrass, Downy [6, 17]: 50 | Plant response rating, Foxtail, Giant ([7]; 16 g ai/ha, 0 to 100 scale): 65 | Foxtail, Giant plant response rating (0 to 100 scale) [7]: 75 | Plant response rating, Foxtail, Giant [7, 16]: 70 | Plant response rating, Foxtail, Giant [7, 17]: 80 | Plant response rating, Velvetleaf ([8]; 16 g ai/ha, 0 to 100 scale): 75 | Velvetleaf plant response rating (0 to 100 scale) [8]: 90 | Plant response rating, Velvetleaf [8, 16]: 80 | Plant response rating, Velvetleaf [8, 17]: 98 | Plant response rating, Corn (corn (Zea mays); 16 g ai/ha, 0 to 100 scale): 0 | Corn plant response rating (0 to 100 scale) (corn (Zea mays)): 15 | Plant response rating, Corn (corn (Zea mays); [16]): 0 | Plant response rating, Corn (corn (Zea mays); [17]): 25 | Plant response rating, Foxtail, Green ([9]; 16 g ai/ha, 0 to 100 scale): 40 | Foxtail, Green plant response rating (0 to 100 scale) [9]: 85 | Plant response rating, Foxtail, Green [9, 16]: 80 | Plant response rating, Foxtail, Green [9, 17]: 85 | Plant response rating, Cupgrass, Woolly ([10]; 16 g ai/ha, 0 to 100 scale): 65 | Cupgrass, Woolly plant response rating (0 to 100 scale) [10]: 70 | Plant response rating, Cupgrass, Woolly [10, 16]: 65 | Plant response rating, Cupgrass, Woolly [10, 17]: 75 | Plant response rating, Johnsongrass ([11]; 16 g ai/ha, 0 to 100 scale): 20 | Johnsongrass plant response rating (0 to 100 scale) [11]: 65 | Plant response rating, Johnsongrass [11, 16]: 45 | Plant response rating, Johnsongrass [11, 17]: 75 | Plant response rating, Crabgrass, Large ([12]; 16 g ai/ha, 0 to 100 scale): 65 | Crabgrass, Large plant response rating (0 to 100 scale) [12]: 75 | Plant response rating, Crabgrass, Large [12, 16]: 75 | Plant response rating, Crabgrass, Large [12, 17]: 85 | Plant response rating, Surinam Grass ([13]; 16 g ai/ha, 0 to 100 scale): 25 | Surinam Grass plant response rating (0 to 100 scale) [13]: 75 | Plant response rating, Surinam Grass [13, 16]: 75 | Plant response rating, Surinam Grass [13, 17]: 90 | Plant response rating, Nutsedge, Yellow ([14]; 16 g ai/ha, 0 to 100 scale): 35 | Nutsedge, Yellow plant response rating (0 to 100 scale) [14]: 70 | Plant response rating, Nutsedge, Yellow [14, 16]: 55 | Plant response rating, Nutsedge, Yellow [14, 17]: 75 | Plant response rating, Ryegrass, Italian ([15]; 16 g ai/ha, 0 to 100 scale): 5 | Ryegrass, Italian plant response rating (0 to 100 scale) [15]: 10 | Plant response rating, Ryegrass, Italian [15, 16]: 5 | Plant response rating, Ryegrass, Italian [15, 17]: 40

COCCCn1c(-c2cccc(F)c2)ncc(C(=O)C2=C(O)CCCC2=O)c1=O [Compound 126]
Bermudagrass plant response rating (0 to 100 scale) [1]: 85 | Plant response rating, Bermudagrass [1, 16]: 75 | Plant response rating, Bermudagrass [1, 17]: 90 | Plant response rating, Bermudagrass [1, 18]: 95 | Kochia plant response rating (0 to 100 scale) (kochia (Kochia scoparia)): 25 | Plant response rating, Kochia (kochia (Kochia scoparia); [16]): 10 | Plant response rating, Kochia (kochia (Kochia scoparia); [17]): 25 | Plant response rating, Kochia (kochia (Kochia scoparia); [18]): 85 | Blackgrass plant response rating (0 to 100 scale) [2]: 25 | Plant response rating, Blackgrass [2, 16]: 5 | Plant response rating, Blackgrass [2, 17]: 30 | Plant response rating, Blackgrass [2, 18]: 45 | Goosegrass plant response rating (0 to 100 scale) [3]: 70 | Plant response rating, Goosegrass [3, 16]: 65 | Plant response rating, Goosegrass [3, 17]: 75 | Plant response rating, Goosegrass [3, 18]: 85 | Ragweed plant response rating (0 to 100 scale) [4]: 75 | Plant response rating, Ragweed [4, 16]: 55 | Plant response rating, Ragweed [4, 17]: 85 | Plant response rating, Ragweed [4, 18]: 90 | Lambsquarters plant response rating (0 to 100 scale) [5]: 85 | Plant response rating, Lambsquarters [5, 16]: 70 | Plant response rating, Lambsquarters [5, 17]: 85 | Plant response rating, Lambsquarters [5, 18]: 98 | Bromegrass, Downy plant response rating (0 to 100 scale) [6]: 15 | Plant response rating, Bromegrass, Downy [6, 16]: 5 | Plant response rating, Bromegrass, Downy [6, 17]: 30 | Plant response rating, Bromegrass, Downy [6, 18]: 40 | Foxtail, Giant plant response rating (0 to 100 scale) [7]: 80 | Plant response rating, Foxtail, Giant [7, 16]: 70 | Plant response rating, Foxtail, Giant [7, 17]: 85 | Plant response rating, Foxtail, Giant [7, 18]: 90 | Velvetleaf plant response rating (0 to 100 scale) [8]: 90 | Plant response rating, Velvetleaf [8, 16]: 80 | Plant response rating, Velvetleaf [8, 17]: 95 | Plant response rating, Velvetleaf [8, 18]: 98 | Corn plant response rating (0 to 100 scale) (corn (Zea mays)): 30 | Plant response rating, Corn (corn (Zea mays); [16]): 10 | Plant response rating, Corn (corn (Zea mays); [17]): 55 | Plant response rating, Corn (corn (Zea mays); [18]): 80 | Foxtail, Green plant response rating (0 to 100 scale) [9]: 80 | Plant response rating, Foxtail, Green [9, 16]: 50 | Plant response rating, Foxtail, Green [9, 17]: 90 | Plant response rating, Foxtail, Green [9, 18]: 95 | Cupgrass, Woolly plant response rating (0 to 100 scale) [10]: 75 | Plant response rating, Cupgrass, Woolly [10, 16]: 65 | Plant response rating, Cupgrass, Woolly [10, 17]: 85 | Plant response rating, Cupgrass, Woolly [10, 18]: 90 | Johnsongrass plant response rating (0 to 100 scale) [11]: 65 | Plant response rating, Johnsongrass [11, 16]: 65 | Plant response rating, Johnsongrass [11, 17]: 85 | Plant response rating, Johnsongrass [11, 18]: 90 | Crabgrass, Large plant response rating (0 to 100 scale) [12]: 80 | Plant response rating, Crabgrass, Large [12, 16]: 75 | Plant response rating, Crabgrass, Large [12, 17]: 85 | Plant response rating, Crabgrass, Large [12, 18]: 90 | Surinam Grass plant response rating (0 to 100 scale) [13]: 80 | Plant response rating, Surinam Grass [13, 16]: 70 | Plant response rating, Surinam Grass [13, 17]: 85 | Plant response rating, Surinam Grass [13, 18]: 98 | Nutsedge, Yellow plant response rating (0 to 100 scale) [14]: 75 | Plant response rating, Nutsedge, Yellow [14, 16]: 65 | Plant response rating, Nutsedge, Yellow [14, 17]: 80 | Plant response rating, Nutsedge, Yellow [14, 18]: 80 | Ryegrass, Italian plant response rating (0 to 100 scale) [15]: 5 | Plant response rating, Ryegrass, Italian [15, 16]: 0 | Plant response rating, Ryegrass, Italian [15, 17]: 5 | Plant response rating, Ryegrass, Italian [15, 18]: 50
